# Assay: method code SF-AS, from DOI: 10.1135/cccc19851642
row,SMILES,logP
1,CCCCCOC(=O)C=Cc1ccc([N+](=O)[O-])o1,3.4
2,CCCOC(=O)C=Cc1ccc([N+](=O)[O-])o1,2.67
3,COC(=O)C(C#N)=Cc1ccc(I)o1,2.75
4,COC(=O)/C(C#N)=C/c1ccc(SC)o1,2.61
5,CCOC(=O)C(=Cc1ccc([N+](=O)[O-])o1)C(=O)OCC,2.5
6,CCCCOC(=O)C=Cc1ccc([N+](=O)[O-])o1,2.83
7,CCCCCCCCCCCC(C)NC(=O)C=Cc1ccc([N+](=O)[O-])o1 (stereo not given),3.7
8,CC(C)COC(=O)/C=C/c1ccc([N+](=O)[O-])o1,3.14
9,N#CC(C#N)=Cc1ccc(I)o1,2.42
10,COC(=O)C(C#N)=Cc1ccc(Br)o1,2.41
11,O=[N+]([O-])/C=C/c1ccc([N+](=O)[O-])o1,1.3
12,CCOC(=O)/C=C/c1ccc([N+](=O)[O-])o1,2.1
13,CCC(C)OC(=O)/C=C/c1ccc([N+](=O)[O-])o1 (stereo not given),3.09
14,O=[N+]([O-])c1ccc(C=CBr)o1,2.45
15,CSc1ccc(C=C(C#N)C#N)o1,2.45
16,COC(=O)/C(C#N)=C/c1ccc(C)o1,2.09

# Results, then the compound that gave them:
row,logP,SMILES
1,0.82,CN(C)C(=O)/C=C/c1ccc([N+](=O)[O-])o1
2,2.61,CC(C)(C)CNC(=O)C=Cc1ccc([N+](=O)[O-])o1
3,2.33,CC(C)(C)NC(=O)C=Cc1ccc([N+](=O)[O-])o1
4,0.98,CNC(=O)C=Cc1ccc([N+](=O)[O-])o1
5,1.8,CC(C)NC(=O)/C=C/c1ccc([N+](=O)[O-])o1
6,2.36,CCCCNC(=O)C=Cc1ccc([N+](=O)[O-])o1
7,2.64,CC(C)OC(=O)/C=C/c1ccc([N+](=O)[O-])o1
8,0.65,NC(=O)/C=C/c1ccc([N+](=O)[O-])o1
9,1.39,CCNC(=O)C=Cc1ccc([N+](=O)[O-])o1
10,2.28,CCC(C)NC(=O)C=Cc1ccc([N+](=O)[O-])o1 (stereo not given)
11,1.86,CCCNC(=O)C=Cc1ccc([N+](=O)[O-])o1
12,2.23,CC(C)CNC(=O)C=Cc1ccc([N+](=O)[O-])o1
13,3.09,CC(C)(C)OC(=O)C=Cc1ccc([N+](=O)[O-])o1
14,0.68,O=C(O)/C=C/c1ccc([N+](=O)[O-])o1

# From the SangsterLogP compilation
